# Literature values, collected in patent US6337320B1, “Reparatives for ultraviolet radiation skin damage” (Thione International, Inc., priority 1996, dated 2002).
# Columns and labels:
# [1] = oral, prolonged periods
# [2] = system: vitamin E deficient chicks
compound,measurement,setting,value
[Se] [selenium],dose at which selenium toxicities occur,[1],> 4000 micrograms per day
C[Se]CC[C@H](N)C(=O)O [selenomethionine],in vivo lipid peroxidation in tissues,[2],inhibits
same,"protection against acute UV damage to the skin, as measured by the minimal erythema dose","human subjects; eight women, topical lotion 0.002%, 0.02% and 0.05%",effective
same,plasma levels of selenium,"human subjects; volunteers, topical application",remained unchanged
same,skin levels of selenium dependent glutathione peroxidase,patients with psoriasis; normal and psoriatic skin,unchanged
same,increase in blood levels post treatment,patients with psoriasis; psoriasis patients with normal pretreatment selenium blood levels,40%
same,number of CD4+T-cells,patients with psoriasis; reticular dermis of the psoriatic lesions,statistically significant increase
same,concentration of selenium in skin in areas of topical application,"mice; lotion, topical vs comparable oral doses",greater than those of the experimental animals given comparable oral doses
same,"skin damage by ultraviolet irradiation (inflammation, pigmentation, onset and incidence of skin cancers)","mice; mice treated with selenomethionine, ultraviolet irradiation",significantly less skin damage
same,selenium toxicity,"mice; mouse, in vivo, po",no evidence of selenium toxicity
(−)epigallo catechin gallate [EGCG],hydrogen peroxide formation,human leukocytes,inhibits
